From patent US11478471B2, “Methods and compositions for treating diabetes, metabolic syndrome and other conditions” (priority 2005, dated 2022)
Converted amounts (≈) assume the structure as drawn. Read-outs that look alike come from different tables or passages of the source.

Key:
Candida guilliermondii = test: Antifungal MIC; type: cell-based; conditions: Meyerozyma guilliermondii, DSM11947; DSM strain 11947, 48 h
Issatchenkia orientalis = test: Antifungal MIC; type: cell-based; conditions: Pichia kudriavzevii, read-out: MIC
Candida kefyr = test: Antifungal MIC; type: cell-based; conditions: Kluyveromyces marxianus, DSM11954; DSM strain 11954, 48 h
cholesterol levels = test: Cholesterol levels in rats after oral dosing; type: in vivo, Sprague Dawley rats; conditions: single oral 200 mg/kg
Method: (§1) The rats were maintained as described above; the drugs were suspended in olive oil, and each rat was dosed once via gastric tube to achieve a dose of 200 mg/kg. All of the rats were dosed at a specific time so that all terminations occurred between 6 and 7 pm. […] Following sacrifice, plasma was prepared, and the concentration of corticosterone in the plasma was determined by ELISA. In the same plasma samples, total cholesterol levels were also determined.

Saccharomyces cerevisiae = test: Antifungal MIC; type: cell-based; conditions: DSM01333, DSM strain 01333, 48 h
plasma corticosterone = test: Plasma corticosterone in rats after oral dosing (ELISA); type: in vivo, Sprague Dawley rats; conditions: for Corticosteroid Levels (mean ± SEM): 4 h after gavage
Method: To generate the results shown in FIG. 1, five groups (eight per group) of rats were used. The rats were maintained on a 14/10 hour light/dark cycle and allowed free access to food and water. Each rat was dosed (200 mg drug/kg body weight) via a gastric tube. […] All of the rats were dosed between 2.00 and 3.00 pm and were sacrificed four hours later (between 6.00 and 7.00 pm). Plasma was prepared and the concentration of corticosterone determined by an enzyme linked immuno assay (ELISA). In rats, the predominant active glucocorticoid is corticosterone; in humans, the predominant active glucucorticoid is the closely related molecule cortisol.
The rats were maintained and dosed as described above. Plasma was prepared and the concentration of corticosterone in the plasma determined by ELISA.
as §1
In the Table, corticosterone levels (mean±SEM; ng/mL) were determined four hours after oral gavage of the indicated drug (N=10/group). There was a single control group (dosed with vehicle).
Corticosterone levels (mean±SEM; ng/mL) were determined at the indicated times after oral gavage of the indicated drug at 200 mg/kg. […] The means of the vehicle treated groups are used as the time zero control point.

[1] = 28 day GLP toxicity study in dogs; conditions: 28 days
[2] = Toxicokinetics in the 28 day dog study of DIO-902 (with racemic ketoconazole group a); conditions: beagle, plasma; for AUC(0-t): AUC(0-12); for concentration at 0 h / concentration at 1 h / concentration at 2 h / concentration at 4 h / concentration at 8 h / concentration at 12 h: Drug concentration in plasma;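 as to all read-outs here: beagle dogs dosed orally once daily within a 28-day GLP study, 3 animals per sex per group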
[3] = female, po, 2 mg/kg, dogs, 2 mg/kg oral, day 1, F
[4] = female, po, 2 mg/kg, dogs, 2 mg/kg oral, day 28, F
[5] = female, po, 6.5 mg/kg, dogs, 6.5 mg/kg oral, day 28, F
[6] = female, po, 6.5 mg/kg, dogs, 6.5 mg/kg oral, day 1, F
[7] = female, po, 20 mg/kg, dogs, 20 mg/kg oral, day 28, F
[8] = female, po, 20 mg/kg, dogs, 20 mg/kg oral, day 1, F

With `CC(=O)N1CCN(c2ccc(OC[C@@H]3CO[C@@](Cn4ccnc4)(c4ccc(Cl)cc4Cl)O3)cc2)CC1` [DIO-902, 2S,4R cis-1-acetyl-4-[4-[[2-(2,4-dichlorophenyl)-2-(1H-imidazol-1-ylmethyl)-1,3-dioxolan-4-yl]methoxyl]phenyl]piperazine] the MIC (Candida guilliermondii) was 0.06 µg/mL (≈ 0.113 µM), the MIC (Issatchenkia orientalis; DSM11956, DSM strain 11956, 48 h) was 0.25 µg/mL (≈ 0.47 µM) and the MIC (Issatchenkia orientalis; DSM11958, DSM strain 11958, 48 h) was 1 µg/mL (≈ 1.88 µM). The MIC (Candida kefyr) was 0.03 µg/mL (≈ 0.0565 µM), the “Cholesterol Levels (mean ± SEM)” value (cholesterol levels; 4 h) was 69.6 ± 1.9 mg/dL and the “Cholesterol Levels (mean ± SEM)” value (cholesterol levels; 8 h) was 73.5 ± 3.1 mg/dL. The “Cholesterol Levels (mean ± SEM)” value (cholesterol levels; 12 h) was 77.3 ± 3.9 mg/dL, the “Cholesterol Levels (mean ± SEM)” value (cholesterol levels; 16 h) was 61.9 ± 3.1 mg/dL and the “Cholesterol Levels (mean ± SEM)” value (cholesterol levels; 20 h) was 58 ± 1.2 mg/dL. The “Cholesterol Levels (mean ± SEM)” value (cholesterol levels; 24 h) was 61.9 ± 3.1 mg/dL, the MIC (Saccharomyces cerevisiae) was 0.25 µg/mL (≈ 0.47 µM) and the “Corticosteroid Levels (mean ± SEM)” value (plasma corticosterone; single oral 50 mg/kg) was 186 ± 14.9 ng/mL. For the same compound, the “Corticosteroid Levels (mean ± SEM)” value (plasma corticosterone; single oral 100 mg/kg) was 139 ± 10.9 ng/mL, the “Corticosteroid Levels (mean ± SEM), time course” value (plasma corticosterone; single oral 200 mg/kg, 4 h) was 98 ± 10 ng/mL and the “Corticosteroid Levels (mean ± SEM)” value (plasma corticosterone; single oral 200 mg/kg) was 100 ± 8.6 ng/mL. For the same compound, the “Corticosteroid Levels (mean ± SEM), time course” value (plasma corticosterone; single oral 200 mg/kg, 8 h) was 116 ± 13 ng/mL, the “Corticosteroid Levels (mean ± SEM), time course” value (plasma corticosterone; single oral 200 mg/kg, 12 h) was 113 ± 8 ng/mL and the “Corticosteroid Levels (mean ± SEM), time course” value (plasma corticosterone; single oral 200 mg/kg, 16 h) was 133 ± 17 ng/mL. The “Corticosteroid Levels (mean ± SEM), time course” value (plasma corticosterone; single oral 200 mg/kg, 20 h) was 136 ± 12 ng/mL, the “Corticosteroid Levels (mean ± SEM), time course” value (plasma corticosterone; single oral 200 mg/kg, 24 h) was 103 ± 14 ng/mL and the “Corticosteroid Levels (mean ± SEM)” value (plasma corticosterone; single oral 400 mg/kg) was 84 ± 11.6 ng/mL. For the same compound, the “Corticosteroid Levels (mean ± SEM)” value (plasma corticosterone; single oral 600 mg/kg) was 80 ± 7.8 ng/mL, the QTc ([1]; dogs, 20 mg/kg/day) was “no obvious QTc prolongation” and the “food eaten less than placebo control group” value ([1]; dogs, 20 mg/kg/day) was 25-35%. For the same compound, the body weight gain ([1]; dogs, 20 mg/kg/day, females (placebo 0.9 kg)) was 0.14 kg, the body weight gain ([1]; dogs, 20 mg/kg/day, males (placebo 1.1 kg)) was 0.25 kg and the “change in serum chemistry measures” value ([1]; dogs, 2, 6.5, 20 mg/kg/day) was “reduction in cholesterol”. The hematology ([1]; dogs, 2, 6.5, 20 mg/kg/day) was “no hematological changes noted”, the “ophthalmological and electrocardiographic parameters” value ([1]; dogs, 2, 6.5, 20 mg/kg/day) was “no measurable effects” and the microscopic findings ([1]; dogs, any dose) was “no remarkable microscopic findings”. It also gave a Tmax ([2]; both, oral, 20 mg/kg, Tmax values, dogs, 2, 6.5 and 20 mg/kg, Day 1) of 1 to 8 h, a Tmax ([2]; both, oral, 20 mg/kg, Tmax values, dogs, 2, 6.5 and 20 mg/kg, Day 28) of 1 to 12 h and a Cmax ([2]; both, po, 20 mg/kg/day, dogs, 20 mg/kg/day, day 28) of 9940 to 9950 ng/mL. For the same compound, the AUC(0-t) ([2]; female, po, 2 mg/kg, dogs, 2 mg/kg oral, day 1, F, n = 1) was 2570 ng·h/mL, the AUC(0-t) ([2]; female, po, 2 mg/kg, dogs, 2 mg/kg oral, day 28, F, n = 1) was 2760 ng·h/mL and the Cmax [2, 3] was 450 ng/mL. For the same compound, the Cmax [2, 4] was 750 ng/mL, the concentration at 0 h [2, 3] was under 250 ng/mL and the concentration at 1 h [2, 3] was under 250 ng/mL. The concentration at 2 h [2, 3] was 270 ng/mL, the concentration at 4 h [2, 3] was 280 ng/mL and the concentration at 8 h [2, 3] was under 250 ng/mL. It also gave a concentration at 12 h [2, 3] of under 250 ng/mL, a concentration at 0 h [2, 4] of under 250 ng/mL and a concentration at 1 h [2, 4] of 290 ng/mL. The concentration at 2 h [2, 4] was 520 ng/mL, the concentration at 4 h [2, 4] was 300 ng/mL and the concentration at 8 h [2, 4] was under 250 ng/mL. The concentration at 12 h [2, 4] was under 250 ng/mL, the Tmax ([2]; female, po, 2 mg/kg, Tmax Range, dogs, 2 mg/kg oral, day 1, F) was 2 to 4 h and the Tmax ([2]; female, po, 2 mg/kg, Tmax Range, dogs, 2 mg/kg oral, day 28, F) was 1 to 8 h. For the same compound, the AUC(0-t) ([2]; female, po, 6.5 mg/kg, dogs, 6.5 mg/kg oral, day 1, F, n = 1) was 4700 ng·h/mL, the AUC(0-t) [2, 5] was 12900 ng·h/mL and the Cmax [2, 6] was 2570 ng/mL. It also gave a Cmax [2, 5] of 2410 ng/mL, a concentration at 0 h [2, 6] of under 250 ng/mL and a concentration at 1 h [2, 6] of under 250 ng/mL. It also gave a concentration at 2 h [2, 6] of 440 ng/mL, a concentration at 4 h [2, 6] of 2320 ng/mL and a concentration at 8 h [2, 6] of 500 ng/mL. The concentration at 12 h [2, 6] was under 250 ng/mL, the concentration at 0 h [2, 5] was under 250 ng/mL and the concentration at 1 h [2, 5] was 250 ng/mL. It also gave a concentration at 2 h [2, 5] of 1250 ng/mL, a concentration at 4 h [2, 5] of 1850 ng/mL and a concentration at 8 h [2, 5] of 1270 ng/mL. For the same compound, the concentration at 12 h [2, 5] was 340 ng/mL, the Tmax ([2]; female, po, 6.5 mg/kg, Tmax Range, dogs, 6.5 mg/kg oral, day 1, F) was 2 to 4 h and the Tmax ([2]; female, po, 6.5 mg/kg, Tmax Range, dogs, 6.5 mg/kg oral, day 28, F) was 2 to 8 h. For the same compound, the AUC(0-t) ([2]; female, po, 20 mg/kg, dogs, 20 mg/kg oral, day 1, F, n = 2) was 80600 ng·h/mL, the AUC(0-t) [2, 7] was 77800 ng·h/mL and the Cmax [2, 8] was 14700 ng/mL. For the same compound, the Cmax [2, 7] was 9950 ng/mL, the concentration at 0 h [2, 8] was under 250 ng/mL and the concentration at 1 h [2, 8] was under 250 ng/mL.
